Test results taken from patent publication US20090018134A1, “Compounds - 945” (AstraZeneca AB, priority 2007, published 2009).

The compounds below were run against T1, mTOR (Homo sapiens, UniProt P42345) (assay: In Vitro mTOR Kinase Assay (Echo), Test (a)(ii)). Conditions: read-out: mTOR Kinase Assay (Echo).
T1 construct: FLAG; made in house
T1 sequence (P42345 1362-2549): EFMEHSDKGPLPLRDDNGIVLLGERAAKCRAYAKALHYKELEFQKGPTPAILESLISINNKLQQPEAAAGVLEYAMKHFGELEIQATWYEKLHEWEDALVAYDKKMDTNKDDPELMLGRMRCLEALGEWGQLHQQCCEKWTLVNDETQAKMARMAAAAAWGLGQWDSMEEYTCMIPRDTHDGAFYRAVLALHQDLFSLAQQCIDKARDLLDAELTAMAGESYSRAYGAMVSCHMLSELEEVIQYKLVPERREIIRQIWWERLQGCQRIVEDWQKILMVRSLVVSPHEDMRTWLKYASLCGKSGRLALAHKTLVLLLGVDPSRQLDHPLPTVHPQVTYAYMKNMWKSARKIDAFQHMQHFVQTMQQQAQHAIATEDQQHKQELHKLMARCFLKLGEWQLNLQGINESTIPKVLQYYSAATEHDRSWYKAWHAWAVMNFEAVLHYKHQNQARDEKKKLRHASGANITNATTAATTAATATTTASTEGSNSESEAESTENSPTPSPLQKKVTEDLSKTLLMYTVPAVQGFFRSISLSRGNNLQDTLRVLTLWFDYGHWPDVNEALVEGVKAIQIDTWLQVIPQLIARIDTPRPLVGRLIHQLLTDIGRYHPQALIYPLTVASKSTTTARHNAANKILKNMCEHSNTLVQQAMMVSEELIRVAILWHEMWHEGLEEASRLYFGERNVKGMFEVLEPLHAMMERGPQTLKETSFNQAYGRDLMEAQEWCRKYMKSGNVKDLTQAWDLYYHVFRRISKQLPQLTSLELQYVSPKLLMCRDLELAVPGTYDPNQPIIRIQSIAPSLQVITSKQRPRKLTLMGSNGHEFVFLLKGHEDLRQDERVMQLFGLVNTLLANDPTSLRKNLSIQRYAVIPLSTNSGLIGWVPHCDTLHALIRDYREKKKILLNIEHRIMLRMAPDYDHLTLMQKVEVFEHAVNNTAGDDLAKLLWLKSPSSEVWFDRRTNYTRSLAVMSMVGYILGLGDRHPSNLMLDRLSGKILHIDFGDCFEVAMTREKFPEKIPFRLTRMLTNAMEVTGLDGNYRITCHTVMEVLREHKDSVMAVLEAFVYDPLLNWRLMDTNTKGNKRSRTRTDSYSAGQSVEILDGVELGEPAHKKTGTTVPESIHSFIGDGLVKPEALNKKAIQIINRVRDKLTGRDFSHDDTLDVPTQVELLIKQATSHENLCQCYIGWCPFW
Type: biochemical
Method in brief: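 AlphaScreen read-out: biotinylated substrate phosphorylation was detected with anti-p70 S6K (T389) 1A5 antibody, Protein A acceptor and streptavidin donor beads after overnight dark incubation at room temperature. Enzyme was FLAG-mTOR 1362-2549 from stable HEK293 cells.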
For C[C@H]1COCCN1c1cc(C2(S(=O)(=O)c3ccncc3)CC2)nc(-c2ccc(NC(=O)Nc3ccc(C(F)(F)F)cc3)cc2)n1 [Example 6i, 1-[4-[4-[(3S)-3-methylmorpholin-4-yl]-6-(1-pyridin-4-ylsulfonylcyclopropyl)pyrimidin-2-yl]phenyl]-3-[4-(trifluoromethyl)phenyl]urea], the IC50 was 4.62 nM. Compound C[C@H]1COCCN1c1cc(C2(S(=O)(=O)c3ccncc3)CC2)nc(-c2ccc(NC(=O)NC(C)(C)CO)cc2)n1 [Example 6j, 3-(1-hydroxy-2-methyl-propan-2-yl)-1-[4-[4-[(3S)-3-methylmorpholin-4-yl]-6-(1-pyridin-4-ylsulfonylcyclopropyl)pyrimidin-2-yl]phenyl]urea] has an IC50 of 5.93 nM. C[C@H]1COCCN1c1cc(C2(S(=O)(=O)c3ccncc3)CC2)nc(-c2ccc(NC(=O)NCCCO)cc2)n1 [Example 6k] gave an IC50 of 1.86 nM. Compound C[C@H]1COCCN1c1cc(C2(S(=O)(=O)c3ccncc3)CC2)nc(-c2ccc(NC(=O)Nc3cnn(C)c3)cc2)n1 [Example 6l, 1-[4-[4-[(3S)-3-methylmorpholin-4-yl]-6-(1-pyridin-4-ylsulfonylcyclopropyl)pyrimidin-2-yl]phenyl]-3-(1-methylpyrazol-4-yl)urea] has an IC50 of 1.19 nM. With C[C@H]1COCCN1c1cc(C2(S(=O)(=O)c3ccncc3)CC2)nc(-c2ccc(NC(=O)NC3CC3)cc2)n1 [Example 6m, 3-cyclopropyl-1-[4-[4-[(3S)-3-methylmorpholin-4-yl]-6-(1-pyridin-4-ylsulfonylcyclopropyl)pyrimidin-2-yl]phenyl]urea] the IC50 was 0.936 nM. In the case of CNC(=O)Nc1ccc(-c2nc(N3CCOC[C@@H]3C)cc(C3(S(=O)(=O)C(C)C)CC3)n2)cc1 [Example 7, 3-Methyl-1-[4-[4-[(3S)-3-methylmorpholin-4-yl]-6-(1-propan-2-ylsulfonylcyclopropyl)pyrimidin-2-yl]phenyl]urea], the IC50 is reported as 3.15 nM. CCNC(=O)Nc1ccc(-c2nc(N3CCOC[C@@H]3C)cc(C3(S(=O)(=O)C(C)C)CC3)n2)cc1 [Example 7a, 1-ethyl-3-[4-[4-[(3S)-3-methylmorpholin-4-yl]-6-(1-propan-2-ylsulfonylcyclopropyl)pyrimidin-2-yl]phenyl]urea] showed an IC50 of 2.31 nM. In the case of CC(C)NC(=O)Nc1ccc(-c2nc(N3CCOC[C@@H]3C)cc(C3(S(=O)(=O)C(C)C)CC3)n2)cc1 [Example 7b, 1-[4-[4-[(3S)-3-methylmorpholin-4-yl]-6-(1-propan-2-ylsulfonylcyclopropyl)pyrimidin-2-yl]phenyl]-3-propan-2-yl-urea], the IC50 is reported as 18.1 nM. For CC(C)S(=O)(=O)C1(c2cc(N3CCOC[C@@H]3C)nc(-c3ccc(NC(=O)NC4CCC4)cc3)n2)CC1 [Example 7c, 3-cyclobutyl-1-[4-[4-[(3S)-3-methylmorpholin-4-yl]-6-(1-propan-2-ylsulfonylcyclopropyl)pyrimidin-2-yl]phenyl]urea], the IC50 was 6.46 nM. Work on CC(C)S(=O)(=O)C1(c2cc(N3CCOC[C@@H]3C)nc(-c3ccc(NC(=O)NC4CC4)cc3)n2)CC1 [Example 7d, 3-cyclopropyl-1-[4-[4-[(3S)-3-methylmorpholin-4-yl]-6-(1-propan-2-ylsulfonylcyclopropyl)pyrimidin-2-yl]phenyl]urea] yielded an IC50 of 3.8 nM. Work on CC(C)S(=O)(=O)C1(c2cc(N3CCOC[C@@H]3C)nc(-c3ccc(NC(=O)NCCO)cc3)n2)CC1 [Example 7e, 3-(2-hydroxyethyl)-1-[4-[4-[(3S)-3-methylmorpholin-4-yl]-6-(1-propan-2-ylsulfonylcyclopropyl)pyrimidin-2-yl]phenyl]urea] yielded an IC50 of 2.12 nM. Compound CC(C)S(=O)(=O)C1(c2cc(N3CCOC[C@@H]3C)nc(-c3ccc(NC(=O)NC(C)(C)CO)cc3)n2)CC1 [Example 7f, 3-(1-hydroxy-2-methyl-propan-2-yl)-1-[4-[4-[(3S)-3-methylmorpholin-4-yl]-6-(1-propan-2-ylsulfonylcyclopropyl)pyrimidin-2-yl]phenyl]urea] has an IC50 of 9.15 nM. For CC(C)S(=O)(=O)C1(c2cc(N3CCOC[C@@H]3C)nc(-c3ccc(NC(=O)NCCN(C)C)cc3)n2)CC1 [Example 7g, 3-(2-dimethylaminoethyl)-1-[4-[4-[(3S)-3-methylmorpholin-4-yl]-6-(1-propan-2-ylsulfonylcyclopropyl)pyrimidin-2-yl]phenyl]urea], the IC50 was 211 nM. For CCCNC(=O)Nc1ccc(-c2nc(N3CCOC[C@@H]3C)cc(C3(S(=O)(=O)C(C)C)CC3)n2)cc1 [Example 7h, 3-[4-[4-[(3S)-3-methylmorpholin-4-yl]-6-(1-propan-2-ylsulfonylcyclopropyl)pyrimidin-2-yl]phenyl]-1-propyl-urea], the IC50 was 11.6 nM. With CC(C)CNC(=O)Nc1ccc(-c2nc(N3CCOC[C@@H]3C)cc(C3(S(=O)(=O)C(C)C)CC3)n2)cc1 [Example 7i, 1-[4-[4-[(3S)-3-methylmorpholin-4-yl]-6-(1-propan-2-ylsulfonylcyclopropyl)pyrimidin-2-yl]phenyl]-3-(2-methylpropyl)urea] the IC50 was 18.2 nM. Compound CC(C)S(=O)(=O)C1(c2cc(N3CCOC[C@@H]3C)nc(-c3ccc(NC(=O)NCCCO)cc3)n2)CC1 [Example 7j, 3-(3-hydroxypropyl)-1-[4-[4-[(3S)-3-methylmorpholin-4-yl]-6-(1-propan-2-ylsulfonylcyclopropyl)pyrimidin-2-yl]phenyl]urea] has an IC50 of 10.5 nM. In the case of CC(C)S(=O)(=O)C1(c2cc(N3CCOC[C@@H]3C)nc(-c3ccc(NC(=O)Nc4ccc(C(F)(F)F)cc4)cc3)n2)CC1 [Example 7k, 1-[4-[4-[(3S)-3-methylmorpholin-4-yl]-6-(1-propan-2-ylsulfonylcyclopropyl)pyrimidin-2-yl]phenyl]-3-[4-(trifluoromethyl)phenyl]urea], the IC50 is reported as 4.82 nM. CC(C)S(=O)(=O)C1(c2cc(N3CCOC[C@@H]3C)nc(-c3ccc(NC(=O)Nc4ccccn4)cc3)n2)CC1 [Example 7l, 1-[4-[4-[(3S)-3-methylmorpholin-4-yl]-6-(1-propan-2-ylsulfonylcyclopropyl)pyrimidin-2-yl]phenyl]-3-pyridin-2-yl-urea] gave an IC50 of 9.13 nM. CC(C)S(=O)(=O)C1(c2cc(N3CCOC[C@@H]3C)nc(-c3ccc(NC(=O)Nc4cnn(C)c4)cc3)n2)CC1 [Example 7m, 1-[4-[4-[(3S)-3-methylmorpholin-4-yl]-6-(1-propan-2-ylsulfonylcyclopropyl)pyrimidin-2-yl]phenyl]-3-(1-methylpyrazol-4-yl)urea] showed an IC50 of 5.04 nM. Compound CNC(=O)Nc1ccc(-c2nc(N3CCOC[C@@H]3C)cc(C3(S(=O)(=O)c4ccc(F)cc4)CC3)n2)cc1 [Example 8, 1-[4-[4-[1-(4-Fluorophenyl)sulfonylcyclopropyl]-6-[(3S)-3-methylmorpholin-4-yl]pyrimidin-2-yl]phenyl]-3-methyl-urea] has an IC50 of 0.576 nM. CCNC(=O)Nc1ccc(-c2nc(N3CCOC[C@@H]3C)cc(C3(S(=O)(=O)c4ccc(F)cc4)CC3)n2)cc1 [Example 8a, 1-ethyl-3-[4-[4-[1-(4-fluorophenyl)sulfonylcyclopropyl]-6-[(3S)-3-methylmorpholin-4-yl]pyrimidin-2-yl]phenyl]urea] gave an IC50 of 0.96 nM. In the case of C[C@H]1COCCN1c1cc(C2(S(=O)(=O)c3ccc(F)cc3)CC2)nc(-c2ccc(NC(=O)NC3CC3)cc2)n1 [Example 8b, 3-cyclopropyl-1-[4-[4-[1-(4-fluorophenyl)sulfonylcyclopropyl]-6-[(3S)-3-methylmorpholin-4-yl]pyrimidin-2-yl]phenyl]urea], the IC50 is reported as 1.23 nM. For CC(C)NC(=O)Nc1ccc(-c2nc(N3CCOC[C@@H]3C)cc(C3(S(=O)(=O)c4ccc(F)cc4)CC3)n2)cc1 [Example 8c, 1-[4-[4-[1-(4-fluorophenyl)sulfonylcyclopropyl]-6-[(3S)-3-methylmorpholin-4-yl]pyrimidin-2-yl]phenyl]-3-propan-2-yl-urea], the IC50 was 1.85 nM. C[C@H]1COCCN1c1cc(C2(S(=O)(=O)c3ccc(F)cc3)CC2)nc(-c2ccc(NC(=O)NC3CCC3)cc2)n1 [Example 8d, 3-cyclobutyl-1-[4-[4-[1-(4-fluorophenyl)sulfonylcyclopropyl]-6-[(3S)-3-methylmorpholin-4-yl]pyrimidin-2-yl]phenyl]urea] showed an IC50 of 1.34 nM. In the case of C[C@H]1COCCN1c1cc(C2(S(=O)(=O)c3ccc(F)cc3)CC2)nc(-c2ccc(NC(=O)NC(C)(C)CO)cc2)n1 [Example 8f, 1-[4-[4-[1-(4-fluorophenyl)sulfonylcyclopropyl]-6-[(3S)-3-methylmorpholin-4-yl]pyrimidin-2-yl]phenyl]-3-(1-hydroxy-2-methyl-propan-2-yl)urea], the IC50 is reported as 8.82 nM. C[C@H]1COCCN1c1cc(C2(S(=O)(=O)c3ccc(F)cc3)CC2)nc(-c2ccc(NC(=O)NCCN(C)C)cc2)n1 [Example 8g, 3-(2-dimethylaminoethyl)-1-[4-[4-[1-(4-fluorophenyl)sulfonylcyclopropyl]-6-[(3S)-3-methylmorpholin-4-yl]pyrimidin-2-yl]phenyl]urea] gave an IC50 of 61.3 nM. In the case of CCCNC(=O)Nc1ccc(-c2nc(N3CCOC[C@@H]3C)cc(C3(S(=O)(=O)c4ccc(F)cc4)CC3)n2)cc1 [Example 8h, 3-[4-[4-[1-(4-fluorophenyl)sulfonylcyclopropyl]-6-[(3S)-3-methylmorpholin-4-yl]pyrimidin-2-yl]phenyl]-1-propyl-urea], the IC50 is reported as 1.76 nM. For CC(C)CNC(=O)Nc1ccc(-c2nc(N3CCOC[C@@H]3C)cc(C3(S(=O)(=O)c4ccc(F)cc4)CC3)n2)cc1 [Example 8i, 1-[4-[4-[1-(4-fluorophenyl)sulfonylcyclopropyl]-6-[(3S)-3-methylmorpholin-4-yl]pyrimidin-2-yl]phenyl]-3-(2-methylpropyl)urea], the IC50 was 19.8 nM. C[C@H]1COCCN1c1cc(C2(S(=O)(=O)c3ccc(F)cc3)CC2)nc(-c2ccc(NC(=O)NCCCO)cc2)n1 [Example 8j, 1-[4-[4-[1-(4-fluorophenyl)sulfonylcyclopropyl]-6-[(3S)-3-methylmorpholin-4-yl]pyrimidin-2-yl]phenyl]-3-(3-hydroxypropyl)urea] gave an IC50 of 0.751 nM.

Same assay, conditions: table of enzyme assay Test (a)(ii); read-out: Test (a)(ii) IC50
With CNC(=O)Nc1ccc(-c2nc(N3CCOC[C@@H]3C)cc(C3(S(=O)(=O)c4ccc(F)cc4)CC3)n2)cc1 [Example 8, 1-[4-[4-[1-(4-Fluorophenyl)sulfonylcyclopropyl]-6-[(3S)-3-methylmorpholin-4-yl]pyrimidin-2-yl]phenyl]-3-methyl-urea] the IC50 was 0.959 nM. C[C@H]1COCCN1c1cc(C2(S(=O)(=O)c3ccc(F)cc3)CC2)nc(-c2ccc(NC(=O)NCCN(C)C)cc2)n1 [Example 8g, 3-(2-dimethylaminoethyl)-1-[4-[4-[1-(4-fluorophenyl)sulfonylcyclopropyl]-6-[(3S)-3-methylmorpholin-4-yl]pyrimidin-2-yl]phenyl]urea] gave an IC50 of 78.4 nM.
